{
  "source": "patent US20240041036A1",
  "about": "“BIO PESTICIDAL COMPOSITION CONTAINS NOVEL NONANOATE ESTERS OF SUGARS AND SUGAR ALCOHOLS TO CONTROL LEPIDOPTERA, HEMIPTERA AND THYSANOPTERA INSECTS” (FERTIS INDIA PVT. LTD., priority 2020, published 2024)",
  "assay_in_all_cases": "Field experiment on cotton sucking insects, population count",
  "type_in_all_cases": "in vivo",
  "key": {"[1]": {"test_system": "jassids (Amrascabi guttula)", "details": "for Jassids population count after spray: 0.5 g/L", "procedure": "(§1) A field experiment was conducted with EN2 formulation on cotton sucking insects viz. thrips (Scirtothrips dorsails), aphids (Aphis gossypii), jassids (Amrascabi guttula) and whitefly (Bemisia tabaci), as shown in FIG. 25. Two benchmark insecticides were used as control viz. Thiamethoxam (a broad spectrum insecticide) and Acetamiprid (effective to cotton sucking pest). […] Initially the population of the pests (pre count) was assessed before spraying. […] The number of major sucking pests (2 leaves from top, one from middle and 2 leaves from bottom) in 5 tagged plants/treatment was recorded at 24 h before the spray and after 24 h, 3rd, 6th and 9th day after spray. The data was pooled and average population calculated."}, "[2]": {"test_system": "whitefly (Bemisia tabaci)", "details": "0.5 g/L", "procedure": "as §1, with “pest). Three doses of EN 2 formulation (for 1 kg formulation EN 800 g+Arginine 80 g+Silwet20 g+Tergitol 20 g+Water 150 g) was used for this study viz.” for “pest).”"}, "[3]": {"test_system": "thrips (Scirtothrips dorsails)", "details": "for Thrips population count after spray: 0.5 g/L; for Reduction of thrips population: after 24 h, dose not stated", "procedure": "as §1, with “pest). Three doses of EN 2 formulation (for 1 kg formulation EN 800 g+Arginine 80 g+Silwet20 g+Tergitol 20 g+Water 150 g) was used for this study viz.” for “pest).”"}},
  "data": [
    {"smiles": "C/C(=N\\C#N)N(C)Cc1ccc(Cl)nc1", "note": "[Acetamiprid]", "values": [
      {"measurement": "Jassids population count after spray", "setting": "[1]; 3rd day after spray", "value": 3.56},
      {"measurement": "Jassids population count after spray", "setting": "[1]; 6th day after spray", "value": 2.66},
      {"measurement": "Jassids population count after spray", "setting": "[1]; 9th day after spray", "value": 3.36},
      {"measurement": "Jassids population count after spray", "setting": "[1]; 24 hrs after spray", "value": 14},
      {"measurement": "Whitefly population count after spray", "setting": "[2]; 3rd day after spray", "value": 1.66},
      {"measurement": "Whitefly population count after spray", "setting": "[2]; 6th day after spray", "value": 2.4},
      {"measurement": "Whitefly population count after spray", "setting": "[2]; 9th day after spray", "value": 2.13},
      {"measurement": "Whitefly population count after spray", "setting": "[2]; 24 h after spray", "value": 8.66},
      {"measurement": "Thrips population count after spray", "setting": "[3]; 3rd day after spray", "value": 4.06},
      {"measurement": "Thrips population count after spray", "setting": "[3]; 6th day after spray", "value": 5.66},
      {"measurement": "Thrips population count after spray", "setting": "[3]; 9th day after spray", "value": 3.6},
      {"measurement": "Thrips population count after spray", "setting": "[3]; 24 h after spray", "value": 22.7},
      {"measurement": "Reduction of thrips population", "setting": "[3]", "value": 13.7, "unit": "%"}
    ]},
    {"smiles": "CN1COCN(Cc2cnc(Cl)s2)/C1=N\\[N+](=O)[O-]", "note": "[Thiamethoxam]", "values": [
      {"measurement": "Jassids population count after spray", "setting": "[1]; 3rd day after spray", "value": 3.26},
      {"measurement": "Jassids population count after spray", "setting": "[1]; 6th day after spray", "value": 2},
      {"measurement": "Jassids population count after spray", "setting": "[1]; 9th day after spray", "value": 2.73},
      {"measurement": "Jassids population count after spray", "setting": "[1]; 24 hrs after spray", "value": 13.66},
      {"measurement": "Reduction of Jassids population", "setting": "[1]; 3rd day after the spray", "value": 11.8, "unit": "%"},
      {"measurement": "Reduction of Jassid population", "setting": "[1]; 9th day", "value": 40.6, "unit": "%"},
      {"measurement": "Whitefly population count after spray", "setting": "[2]; 3rd day after spray", "value": 1.86},
      {"measurement": "Whitefly population count after spray", "setting": "[2]; 6th day after spray", "value": 2.46},
      {"measurement": "Whitefly population count after spray", "setting": "[2]; 9th day after spray", "value": 1.7},
      {"measurement": "Whitefly population count after spray", "setting": "[2]; 24 h after spray", "value": 7},
      {"measurement": "Thrips population count after spray", "setting": "[3]; 3rd day after spray", "value": 3.46},
      {"measurement": "Thrips population count after spray", "setting": "[3]; 6th day after spray", "value": 5.33},
      {"measurement": "Thrips population count after spray", "setting": "[3]; 9th day after spray", "value": 3.76},
      {"measurement": "Thrips population count after spray", "setting": "[3]; 24 h after spray", "value": 23.7},
      {"measurement": "Reduction of thrips population", "setting": "[3]", "value": 15.9, "unit": "%"}
    ]}
  ]
}
